Data as given in ChEMBL document CHEMBL5131532, “Synthesis and Evaluation of Small Molecule Disruptors of the Aha1/Hsp90 Complex for the Reduction of Tau Aggregation” (ACS Med Chem Lett, 2022).
pIC50: −log10 of the molar value. Calls of active or inactive are those of the source. The rule behind the calls is not given here.

species on record: Homo sapiens; assay: Disruption of recombinant human Aha1/Hsp90 alpha protein-protein interaction expressed in Escherichia coli […] assessed as inhibition of recombinant human P301L tau aggregation incubated for 30 mins by ThT fluorescence assay

In the case of `COc1cccc(-c2cc(-c3nnnn3-c3ccc(C(F)(F)F)cc3)ccc2OC)c1`, the Activity was “Active”.
With `COc1ccc(C(=O)Nc2ccc(C(F)(F)F)cc2)cc1-c1cccc(N(C)C)c1` the Activity was “Active”.

tested on: SH-SY5Y; assay: Disruption of Aha1/Hsp90 alpha protein-protein interaction in human SH-SY5Y cells lysate at 10 uM incubated for 24 hrs by co-immunoprecipitation assay; assay type: subcellular

In the case of `COc1cccc(-c2cc(C(=O)Nc3ccc(C(F)(F)F)cc3)ccc2OC)c1`, the Activity was “Active”.
For `COc1cccc(-c2cc(-c3nnnn3-c3ccc(C(F)(F)F)cc3)ccc2OC)c1`, the Activity was “Active”.
For `COc1ccc(C(=O)Nc2ccc(C(F)(F)F)cc2)cc1-c1cccc(N(C)C)c1`, the Activity was “Active”.

tested on: SK-BR-3; assay: Disruption of Aha1/Hsp90 protein-protein interaction in human SK-BR-3 cells lysate at 10 uM incubated for 24 hrs by co-immunoprecipitation assay; assay type: subcellular

In the case of `COc1cccc(-c2cc(C(=O)Nc3ccc(C(F)(F)F)cc3)ccc2OC)c1`, the Activity was “Active”.
With `COc1cccc(-c2cc(-c3nnnn3-c3ccc(C(F)(F)F)cc3)ccc2OC)c1` the Activity was “Active”.
With `COc1ccc(C(=O)Nc2ccc(C(F)(F)F)cc2)cc1-c1cccc(N(C)C)c1` the Activity was “Active”.

tested on: not listed separately; assay: Disruption of recombinant GST-tagged human Aha1/His6-tagged full length human Hsp90alpha protein-protein interaction expressed in Escherichia coli incubated for 4 hrs by AlphaLisa assay

`COC(=O)c1ccc(NC(=O)c2ccc(OC)c(-c3cccc(OC)c3)c2)cc1` and `COC(=O)c1cccc(NC(=O)c2ccc(OC)c(-c3cccc(OC)c3)c2)c1` cannot be ordered by pIC50: < 5.00 for the first, < 5.00 for the second.

`COc1ccc(C(=O)Nc2ccc(C(F)(F)F)cc2)cc1-c1cccc(CO)c1` and `COc1ccc(C(=O)Nc2ccc(C(F)(F)F)cc2)cc1-c1cccc(O)c1` cannot be ordered by pIC50: < 5.00 for the first, < 5.00 for the second.

Compared with `COc1cccc(-c2cc(C(=O)Nc3cccc([N+](=O)[O-])c3)ccc2OC)c1`, `COc1cccc(-c2cc(C(=O)Nc3ccc([N+](=O)[O-])cc3)ccc2OC)c1` is higher in pIC50: < 5.00 for the first, 5.39 for the second.

`COc1ccc(C(=O)Nc2ccc(C(F)(F)F)cc2)cc1-c1cccc(C(F)(F)F)c1` and `COc1ccc(C(=O)Nc2ccc(C(F)(F)F)cc2)cc1-c1ccc(C(F)(F)F)cc1` cannot be ordered by pIC50: < 5.00 for the first, < 5.00 for the second.

Compared with `COc1ccc(C(=O)Nc2ccc(C(F)(F)F)cc2)c(-c2ccccc2OC)c1`, `COc1ccccc1-c1cc(C(=O)Nc2ccc(C(F)(F)F)cc2)ccc1OC` is higher in pIC50: < 5.00 for the first, 5.02 for the second. The second is the more potent here.

`COc1ccc(-c2cc(OC)ccc2C(=O)Nc2ccc(C(F)(F)F)cc2)cc1` and `COc1ccc(C(=O)Nc2ccc(C(F)(F)F)cc2)c(-c2ccc(Cl)cc2)c1` cannot be ordered by pIC50: < 5.00 for the first, < 5.00 for the second.

Going from `COc1cccc(-c2cc(C(=O)Nc3ccc(O)cc3)ccc2OC)c1` to `COc1cccc(-c2cc(C(=O)Nc3ccc(Cl)cc3)ccc2OC)c1`, the pIC50 rises from < 5.00 to 5.22.

Compared with `COc1ccc(C(=O)Nc2ccc(C(F)(F)F)cc2)cc1-c1cccc(OC)c1OC`, `COc1ccc(C(=O)Nc2ccc(C(F)(F)F)cc2)cc1-c1c(OC)cccc1OC` is higher in pIC50: < 5.00 for the first, 5.04 for the second. The second is the more potent here.

`COc1cccc(-c2cc(C(=O)Nc3ccc(C(F)(F)F)cc3)ccc2OC)c1` and `COc1ccc(C(=O)Nc2ccc(C(F)(F)F)cc2)cc1-c1cccc(N)c1` are within 0.2 log units of each other in pIC50: 5.32 for the first, 5.14 for the second.

`COc1ccc(C(=O)Nc2ccc(C(F)(F)F)cc2)cc1-c1ccc(Cl)c(C(F)(F)F)c1` and `COc1ccc(C(=O)Nc2ccc(C(F)(F)F)cc2)cc1-c1ccc(Cl)c(Cl)c1` cannot be ordered by pIC50: < 5.00 for the first, < 5.00 for the second.

`COc1ccc(C(=O)Nc2ccc(C(F)(F)F)cc2)c(-c2ccccc2)c1` and `COc1ccc(C(=O)Nc2ccc(C(F)(F)F)cc2)c(-c2cccc(O)c2)c1` cannot be ordered by pIC50: < 5.00 for the first, < 5.00 for the second.

Going from `COc1cccc(-c2cc(C(=O)Nc3ccc(OC)cc3OC)ccc2OC)c1` to `COc1cc(NC(=O)c2ccc(OC)c(-c3cccc(OC)c3)c2)cc(OC)c1`, the pIC50 falls from 5.02 to < 5.00.

Compared with `COc1ccc(C(=O)Nc2ccc(C(F)(F)F)cc2)cc1-c1ccc(Cl)cc1`, `COc1ccc(C(=O)Nc2ccc(C(F)(F)F)cc2)cc1-c1ccc(O)cc1` is higher in pIC50: < 5.00 for the first, 5.19 for the second.

`COc1cccc(-c2cc(C(=O)Nc3ccc(C#N)cc3)ccc2OC)c1` and `COc1cccc(-c2cc(C(=O)Nc3ccc(F)cc3)ccc2OC)c1` are within 0.2 log units of each other in pIC50: 5.07 for the first, 5.20 for the second.

Going from `COc1cccc(-c2cc(-c3nnnn3-c3ccc(C(F)(F)F)cc3)ccc2OC)c1` to `COc1cccc(-c2cc(OC)ccc2C(=O)Nc2ccc(C(F)(F)F)cc2)c1`, the pIC50 falls from 5.48 to < 5.00.

`COc1ccc(C(=O)Nc2ccc(C(F)(F)F)cc2)c(-c2ccc(O)cc2)c1` and `COc1ccc(C(=O)Nc2ccc(C(F)(F)F)cc2)c(-c2ccc(Cl)c(Cl)c2)c1` cannot be ordered by pIC50: < 5.00 for the first, < 5.00 for the second.

`COc1ccc(-c2cc(C(=O)Nc3ccc(C(F)(F)F)cc3)ccc2OC)cc1` and `COc1ccc(C(=O)Nc2ccc(C(F)(F)F)cc2)cc1-c1ccccc1` cannot be ordered by pIC50: < 5.00 for the first, < 5.00 for the second.

`COc1cccc(-c2cc(C(=O)Nc3ccccc3Cl)ccc2OC)c1` and `COc1cccc(-c2cc(C(=O)Nc3cccc(Cl)c3Cl)ccc2OC)c1` cannot be ordered by pIC50: < 5.00 for the first, < 5.00 for the second.

Going from `COc1ccc(C(=O)Nc2ccc(C(F)(F)F)cc2)cc1-c1cccc(N(C)C)c1` to `COc1ccc(C(=O)Nc2ccc(C(F)(F)F)cc2)cc1-c1cccc(Cl)c1`, the pIC50 falls from 5.47 to < 5.00. The first is the more potent here.

`COc1ccc(C(=O)Nc2ccc(C(F)(F)F)cc2)cc1-c1ccccc1O` and `COc1ccc(C(=O)Nc2ccc(C(F)(F)F)cc2)cc1-c1cccc(F)c1` cannot be ordered by pIC50: < 5.00 for the first, < 5.00 for the second.

`COc1ccc(C(=O)Nc2ccc(C(F)(F)F)cc2)c(-c2ccc(Cl)c(C(F)(F)F)c2)c1` and `COc1ccc(NC(=O)c2ccc(OC)c(-c3cccc(OC)c3)c2)cc1` cannot be ordered by pIC50: < 5.00 for the first, < 5.00 for the second.

`COc1cccc(-c2cc(C(=O)Nc3cccc(Cl)c3)ccc2OC)c1` and `COc1cccc(-c2cc(C(=O)Nc3ccccc3)ccc2OC)c1` cannot be ordered by pIC50: < 5.00 for the first, < 5.00 for the second.

With `COc1cccc(-c2cc(C(=O)Nc3ccc(Cl)cc3Cl)ccc2OC)c1` the pIC50 was < 5.00.
